Tests used:
DA autoreceptors [1] = experiment: Turning behavior in rats with acute unistriatal KCl lesion; format: in vivo, rat; design: key to Catalepsy: + present; - absent; settings: for Apomorphine-induced turning: apomorphine 1.0 mg/kg s.c. 1 h after
Excerpt: 5. Turning behavior in rats with acute unistriatal lesion.
In animals with an acute unilateral KCl-lesion (1μ1 25% KCl lesioned side, 1μ1 20% NaCl control side, administered through previously implanted "guide cannulaes") of the striatum, compensatory counterbalancing adjustments in the intact contralateral striatum are brought about and therefore no appreciable asymmetry in body posture or torsion is observed. Disturbances in the balance produces, depending on the point of attack, ipsi- or alternatively contralateral turning. In this model postsynaptically active DA agonists (e.g. apomorphine, high dosage) elicit ipsilateral turning and rotatory behavior whereas DA antagonists (e.g. haloperidol) cause contralateral turning. Consequently it could be expected that agents acting exclusively on DA autoreceptors would produce contralateral turning in the lesioned animals.

DA autoreceptors [2] = experiment: Effect on spontaneous locomotor activity in the rat; format: in vivo; settings: for Motor activity: 0-15 min
Excerpt: 4. Effect on spontaneous locomotor activity in the rat.
Untreated animals exposed to a new environment display an initial high motor activity which then gradually declines over a period of time. Administration of DA-receptor agonists (e.g. apomorphine) in doses where preferential autoreceptor stimulation is likely to occur, causes a depression of the spontaneous motility mentioned above, considered to be due to the DA autoreceptor-mediated impairment of central DA transmission.
Rats (150-300 g) were injected subcutaneously with several doses of compounds 4 and after 5 minutes they were individually placed in motility boxes ("M/P 40 Fc Electronic Motility Meter". Motron Products, Stockholm) and the motor activity (0-30 min.) was quantified. […] Moreover, there seems to be a correlation between the decrease in spontaneous locomotion and the degree of antagonism of the GBL-induced increase in DA synthesis (cf. 3 above) in the limbic areas of rat brain exerted by compound 4, the per cent decrease of motor activity being roughly 0.6 times the per cent reversal of GBL-induced increase in DA-synthesis rate.

DA autoreceptors [3] = experiment: Antagonism of γ-butyrolactone (GBL)-induced increase in rat brain DA synthesis rate; format: in vivo
Description: 3. Antagonism ofγ-butyrolactone (GBL)-induced increase in rat brain DA synthesis rate.
The administration of GBL in anesthetic doses inhibits nerve impulse flow in central DA neurons, thus resulting in a loss of the impulse-mediated feedback control of tyrosine hydroxylase activity and in a subsequent increase in transmitter synthesis rate (which is determined as described under 2 above). Since the GBL inhibition precludes neuronal feedback actions, antagonistic effects exerted by DA-receptor agonists upon the GBL-induced increase in synthesis are in all probability to be ascribed to their stimulating the DA autoreceptors present in the terminal area of the DA neurons.
Rats (150-300 g), were given compound 4 subcutaneously at several doses (n=7) followed by GBL (750 mg/kg i.p., 5 min. later) and NSD 1015 (100 mg/kg i.p., 10 min. later). By a subsequent procedure according to 2 above the Dopa levels (representing the DA-synthesis rates) were determined. […] The maximal reversal of the GBL-induced increase in DA synthesis rate was approximately 160% in the limbic system and 110% in corpus striatum.

[4] = test system: postsynaptic dopamine receptor; experiment: Gross behavioral observations for postsynaptic dopamine receptor activity; format: in vivo, rat; settings: gross behavioural observations, any dose tested
Excerpt: Rats (150-300 g) pretreated with reserpine were given the compounds under evaluation. Gross behavioral observations (changes in motility, stereotypies etc.) were made in order to evaluate possible postsynaptic dopamine receptor activity. Subsequent administration of NSD 1015, decapitation, brain dissection (corpora striate and the limbic fore-brain), homogenization, centrifugation, ion-exchange chromatography and spectrofluorimetric measurements (all as described in detail by Wikstrom et al., in J. Med. Chem. 21, 864-867, 1978, and references cited therein), gave the actual Dopa levels. Several doses (n=4-6) were tested in order to obtain dose-response curves for each compound and brain area. The dose of a compound producing a half-maximal decrease in the Dopa level in the rat brain part was then estimated.

[5] = test system: postsynaptic DA receptors; experiment: Antagonism of the reserpine-induced "neuroleptic syndrome" in the rat; format: in vivo; settings: s.c., different doses, not even at nearly lethal doses
Excerpt: 1. Antagonism of the reserpine-induced "neuroleptic syndrome" in the rat
Depletion of the monoamine stores with reserpine brings about a "neuroleptic syndrome" characterized by hypomotility, catalepsy, muscle rigidity, hunch-backed posture as well as a number of other central and peripheral signs of monoamine depletion. This syndrome can be reversed by the administration of drugs that stimulate postsynaptic DA receptors directly or indirectly, e.g. apomorphine, L-Dopa.
Rats (150-300 g) pretreated with reserpine (10 mg/kg i.p., 6 h before) were given compound 4 subcutaneously at different doses.

Br.CCCN1CCCC(c2cccc(O)c2)C1 (racemic) [Compound 4, N-n-propyl-3-(3-hydroxyphenyl)piperidine hydrobromide] was tested, and the Catalepsy (DA autoreceptors [1]; 1 mg/kg s.c.) was “-”, the Turning contralateral (DA autoreceptors [1]; 1 mg/kg s.c., 2 animals) was 2 and the Turning ipsilateral (DA autoreceptors [1]; 1 mg/kg s.c., 2 animals) was 0. The Catalepsy (DA autoreceptors [1]; 2 mg/kg s.c.) was “-”, the Duration of turning (DA autoreceptors [1]; 2 mg/kg s.c.) was > 2 h and the Turning contralateral (DA autoreceptors [1]; 2 mg/kg s.c., 4 animals) was 4. The Turning ipsilateral (DA autoreceptors [1]; 2 mg/kg s.c., 4 animals) was 0, the Apomorphine-induced turning (DA autoreceptors [1]; 2 mg/kg s.c.) was “Ipsi 4/4” and the Catalepsy (DA autoreceptors [1]; 4 mg/kg s.c.) was “-”. For the same compound, the Turning contralateral (DA autoreceptors [1]; 4 mg/kg s.c., 2 animals) was 2, the Turning ipsilateral (DA autoreceptors [1]; 4 mg/kg s.c., 2 animals) was 0 and the Catalepsy (DA autoreceptors [1]; 8 mg/kg s.c.) was “-”. The Duration of turning (DA autoreceptors [1]; 8 mg/kg s.c.) was > 4 h, the Turning contralateral (DA autoreceptors [1]; 8 mg/kg s.c., 4 animals) was 4 and the Turning ipsilateral (DA autoreceptors [1]; 8 mg/kg s.c., 4 animals) was 0. For the same compound, the Apomorphine-induced turning (DA autoreceptors [1]; 8 mg/kg s.c.) was “Ipsi 4/4”, the Catalepsy (DA autoreceptors [1]; 32 mg/kg s.c.) was “+” and the Duration of turning (DA autoreceptors [1]; 32 mg/kg s.c.) was > 4 h. The Turning contralateral (DA autoreceptors [1]; 32 mg/kg s.c., 8 animals) was 8, the Turning ipsilateral (DA autoreceptors [1]; 32 mg/kg s.c., 8 animals) was 0 and the Apomorphine-induced turning (DA autoreceptors [1]; 32 mg/kg s.c.) was “Ipsi 8/8”. For the same compound, the “effect on apomorphine ipsilateral turning and rotatory response” value (DA autoreceptors [1]; apomorphine 1.0 mg/kg s.c., pretreatment with compound 4) was “not affected by pretreatment with compound 4”, the turning direction (DA autoreceptors [1]; s.c., each dose tested) was “made the animals turn to the side contralateral to the lesion” and the overall appearance (DA autoreceptors [1]; s.c., lesioned rats) was “indicative of a sedative action”. For the same compound, the Motor activity (DA autoreceptors [2]; glucose i.p. + compound 4 0.5 mg/kg s.c., n=5) was 43 ± 9 acc. counts, the Motor activity (DA autoreceptors [2]; haloperidol 0.02 mg/kg i.p. + compound 4 0.5 mg/kg s.c., n=7) was 80 ± 10 acc. counts and the “reversal of sedative effect by haloperidol” value (DA autoreceptors [2]; haloperidol 0.02 mg/kg i.p. 30 min before, compound 4 0.5 mg/kg) was “at least partly reversed the sedative effect”. For the same compound, the “per cent decrease of motor activity relative to per cent reversal of GBL-induced increase in DA-synthesis rate” value (DA autoreceptors [2]; limbic areas, correlation) was “roughly 0.6 times”, the locomotor stimulation (DA autoreceptors [2]; regardless of the dose used) was “No locomotor stimulation was ever seen” and the “maximal decrease of motor activity from control values” (DA autoreceptors [2]; s.c., 0-30 min, at about 8 mg/kg) was 75%. The “dose at which maximal effect is attained” value (DA autoreceptors [2]; s.c., 75% decrease from control values) was “about 8 mg/kg”, the “dose dependence of motor activity effect” value (DA autoreceptors [2]; s.c., several doses) was “clear dose-dependent decrease of the initial high motor activity” and the “% Reversal of GBL-induced increase in dopamine synthesis rate” value (shortened to “% Reversal of GBL-induced increase”) (DA autoreceptors [3]; 0.5 mg/kg s.c., corpus striatum) was 0%. The “% Reversal of GBL-induced increase” value (DA autoreceptors [3]; 0.5 mg/kg s.c., limbic system) was 58%, the “% Reversal of GBL-induced increase” value (DA autoreceptors [3]; 1.0 mg/kg s.c., corpus striatum) was 17% and the “% Reversal of GBL-induced increase” value (DA autoreceptors [3]; 1.0 mg/kg s.c., limbic system) was 75%. The “% Reversal of GBL-induced increase” value (DA autoreceptors [3]; 2.0 mg/kg s.c., corpus striatum) was 34%, the “% Reversal of GBL-induced increase” value (DA autoreceptors [3]; 2.0 mg/kg s.c., limbic system) was 92% and the “% Reversal of GBL-induced increase” value (DA autoreceptors [3]; 4.0 mg/kg s.c., corpus striatum) was 51%. For the same compound, the “% Reversal of GBL-induced increase” value (DA autoreceptors [3]; 4.0 mg/kg s.c., limbic system) was 109%, the “% Reversal of GBL-induced increase” value (DA autoreceptors [3]; 8.0 mg/kg s.c., corpus striatum) was 68% and the “% Reversal of GBL-induced increase” value (DA autoreceptors [3]; 8.0 mg/kg s.c., limbic system) was 126%. The “% Reversal of GBL-induced increase” value (DA autoreceptors [3]; 16.0 mg/kg s.c., corpus striatum) was 86%, the “% Reversal of GBL-induced increase” value (DA autoreceptors [3]; 16.0 mg/kg s.c., limbic system) was 142% and the Dopa concentration (DA autoreceptors [3]; 32 mg/kg s.c. + GBL, limbic system, n=5) was 191 ± 16 ng per g tissue. The Dopa concentration (DA autoreceptors [3]; 32 mg/kg s.c. + GBL, striatum, n=5) was 1063 ± 74 ng per g tissue, the “maximal reversal of the GBL-induced increase in DA synthesis rate” value (DA autoreceptors [3]; corpus striatum) was ~110% and the “blockade by haloperidol of the antagonism of GBL-induced increase” value (DA autoreceptors [3]; haloperidol) was “the antagonism could be blocked by haloperidol”. The Dopa concentration (DA autoreceptors [3]; haloperidol 1 mg/kg i.p. + 32 mg/kg compound 4, limbic system, n=3) was 387 ± 32 ng per g tissue, the Dopa concentration (DA autoreceptors [3]; haloperidol 1 mg/kg i.p. + 32 mg/kg compound 4, striatum, n=3) was 2193 ± 53 ng per g tissue and the “maximal reversal of the GBL-induced increase in DA synthesis rate” value (DA autoreceptors [3]; limbic system) was “approximately 160%”. The “dose dependence of antagonism of GBL-induced increase in DA synthesis rate” value (DA autoreceptors [3]; s.c., several doses) was “dose-dependently antagonized the GBL-induced increase in DA synthesis rate”, the “postsynaptic DA-receptor activation” value [4] was “selectivity for the autoreceptors” and the “antagonism of the reserpine-induced syndrome” value [5] was “no antagonism of the reserpine-induced syndrome was observed”.
